In PubChem BioAssay AID2060899 (Molecular Pharmacology Branch, DTP, NCI, 2025):

System: 565726-208-R1-J5-PDC complex spheroids, growth inhibition
Experiment: Anticancer human tumor 565726-208-R1-J5-PDC patient-derived pancreatic adenocarcinoma cell line growth inhibition [RAS]
Details: for IC50: curve of first compound; for viability, T/C: stronger effect = lower value
Text: RAS pathway inhibitors in Combinations in Complex Spheroids
A high-throughput screen of multi-cell type tumor spheroids was designed to identify active combinations of RAS pathway inhibitors and targeted small molecules. Complex spheroids include a stromal component modeled by human endothelial cells (HUVEC) and fibroblasts modeled by human mesenchymal stem cells (MSCs). The concentration ranges selected for each drug and investigational agent were based upon clinically achievable concentrations if the clinical Cmax of the agent was known.
Compounds. The drugs and investigational agents: abemaciclib (NSC768073), cobimetinib (NSC768068), divarasib (GDC6063, NSC841802), docetaxel (NSC628503), GDC-1971 (RLY-1971, NSC841576), gemcitabine (NSC613327), inavolisib (NSC800729), ipatasertib (NSC767898), KB-0742 (NSC834161), MRTX-1133 (NSC836407), osimertinib (NSC779217), RMC-4630 (NSC839698), RMC-6236 (NSC851965), RMC-6291 (NSC852671), Ro-3306 (NSC812927), sapanisertib (NSC764658), SN-38 (NSC673596), staurosporine (NSC755774), SY5609 (NSC837396), and tovorafenib (DAY101, NSC766906), were obtained from the National Cancer Institute (NCI) Developmental Therapeutics Program Chemical Repository. The FDA-approved anticancer drug set is available from the NCI Developmental Therapeutics Program. […] The stock solutions were prepared in dimethyl sulfoxide (DMSO, Sigma-Aldrich, St. Louis, MO, cat. D2650) at 800-fold the tested concentration and stored at -70 degrees C prior to their use. All drugs and investigational agents were tested over a range starting from a high concentration at or near the clinical Cmax and decreasing in half-log increments. If the clinical Cmax for an agent had not been determined, the highest concentration tested was 10 microM.
Cell Culture. All cells were maintained in an incubator at 37 degrees C and 5% CO2 with 95% humidity. The PDC lines were cultured according to standard operating procedures established by the NCI PDMR. All PDCs were thawed and cultured in Matrigel-coated flasks prepared with a working solution of 1X Ham's F-12 nutrient mix, without supplementation (Invitrogen, Waltham, MA, cat. 11765054), 100 U/mL penicillin-streptomycin (Invitrogen, cat. 15140122), and 2.5% Matrigel (Corning Inc., Corning, NY, cat. 354248) for the first three passages. The 362531-283-R-J2-PDC and 782815-120-R-J1-PDC lines were cultured in 6C/Colon 1B media, which includes advanced DMEM/F-12 (Thermo Fisher Scientific, cat. 12634028), 10 mM HEPES (Thermo Fisher Scientific, cat. 15630080), 1X GlutaMAX supplement (Thermo Fisher Scientific, cat. 35050061), 0.1 mg/mL primocin (InvivoGen, San Diego, CA, cat. ant-pm-2), 10% defined fetal bovine serum, heat inactivated (HyClone Laboratories Inc., Logan, UT, cat. SH30070.03HI), 50% L-WRN conditioned media (ATCC, cat. CRL-3276), 1.25 mM N-Acetyl-L-cysteine (Sigma-Aldrich, cat. A9165), 10 mM nicotinamide (Sigma-Aldrich, cat. N0636), 1X B-27 supplement (Thermo Fisher Scientific, cat. 17504044), 1X N-2 supplement (Thermo Fisher Scientific, cat. 17502048), 50 ng/mL human EGF (Thermo Fisher Scientific, cat. PHG0311), and 10 microM Y-27632 dihydrochloride (Tocris Bioscience, cat. 1254). The K12877-001-R-J1-PDC line was cultured in 6I media, which includes all 6C/Colon 1B media plus 10 ng/mL human FGF-10 (PeproTech, cat. 100-26), 1 ng/mL human FGF-2 (PeproTech, cat. 100-18B), 1 µM prostaglandin E2 (Tocris Bioscience, cat. 2296), […] hydrocortisone (Sigma-Aldrich, cat. H4001), and […] bovine insulin (Sigma-Aldrich, cat. I6634). The K86415-001-R-J1-PDC line was cultured in 6D media, which includes all 6C/Colon 1B media components minus the L-WRN conditioned media. The 485176-168-R4-J1-PDC was cultured in PANC media, which includes all 6C/Colon 1B media plus 100 ng/mL human FGF-10 (PeproTech, cat. 100-26), 500 nM SB-431542 (Selleckchem, cat. S1067), and 10 nM gastrin (Tocris Bioscience, cat. 3006). […]
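Further: spheroids exposed to compounds for seven days before readout.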
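Wherever viability, T/C is given: 100% = DMSO vehicle control viability.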

- IC50 (second compound 0.0316 µM): 4.16 nM
- IC50 (second compound 0.1 µM): 4.06 nM
- IC50 (second compound 0.316 µM): 3.83 nM
- IC50 (second compound 1 µM): 2.73 nM
- IC50 (second compound 3.16 µM): 3.14 nM
- IC50 (second compound 10 µM): 1.5 nM
Structure (SMILES): CCc1c2c(nc3ccc(O)cc13)-c1cc3c(c(=O)n1C2)COC(=O)[C@]3(O)CC + C#Cc1c(F)ccc2cc(O)cc(-c3ncc4c(N5CC6CCC(C5)N6)nc(OCC56CCCN5CC(F)C6)nc4c3F)c12
- viability, T/C (second compound 0.0316 µM, first compound 0.000949 µM): 74.2%
- viability, T/C (second compound 0.0316 µM, first compound 0.003 µM): 56.9%
- viability, T/C (second compound 0.0316 µM, first compound 0.00949 µM): 34%
- viability, T/C (second compound 0.0316 µM, first compound 0.03 µM): 20.2%
- viability, T/C (second compound 0.0316 µM, first compound 0.0949 µM): 12.5%
- viability, T/C (second compound 0.0316 µM, first compound 0.3 µM): 5.35%
- viability, T/C (second compound 0.1 µM, first compound 0.000949 µM): 97.8%
- viability, T/C (second compound 0.1 µM, first compound 0.003 µM): 56%
- viability, T/C (second compound 0.1 µM, first compound 0.00949 µM): 31.8%
- viability, T/C (second compound 0.1 µM, first compound 0.03 µM): 19.4%
- viability, T/C (second compound 0.1 µM, first compound 0.0949 µM): 13.1%
- viability, T/C (second compound 0.1 µM, first compound 0.3 µM): 6.83%
- viability, T/C (second compound 0.316 µM, first compound 0.000949 µM): 81.1%
- viability, T/C (second compound 0.316 µM, first compound 0.003 µM): 56.2%
- viability, T/C (second compound 0.316 µM, first compound 0.00949 µM): 30.2%
- viability, T/C (second compound 0.316 µM, first compound 0.03 µM): 20.6%
- viability, T/C (second compound 0.316 µM, first compound 0.0949 µM): 13.9%
- viability, T/C (second compound 0.316 µM, first compound 0.3 µM): 6.04%
- viability, T/C (second compound 1 µM, first compound 0.000949 µM): 70.8%
- viability, T/C (second compound 1 µM, first compound 0.003 µM): 43%
- viability, T/C (second compound 1 µM, first compound 0.00949 µM): 35.9%
- viability, T/C (second compound 1 µM, first compound 0.03 µM): 22.4%
- viability, T/C (second compound 1 µM, first compound 0.0949 µM): 11.8%
- viability, T/C (second compound 1 µM, first compound 0.3 µM): 6.08%
- viability, T/C (second compound 3.16 µM, first compound 0.000949 µM): 58.8%
- viability, T/C (second compound 3.16 µM, first compound 0.003 µM): 54.6%
- viability, T/C (second compound 3.16 µM, first compound 0.00949 µM): 29.1%
- viability, T/C (second compound 3.16 µM, first compound 0.03 µM): 22.1%
- viability, T/C (second compound 3.16 µM, first compound 0.0949 µM): 14.1%
- viability, T/C (second compound 3.16 µM, first compound 0.3 µM): 7.99%
- viability, T/C (second compound 10 µM, first compound 0.000949 µM): 52.6%
- viability, T/C (second compound 10 µM, first compound 0.003 µM): 49.1%
- viability, T/C (second compound 10 µM, first compound 0.00949 µM): 30.1%
- viability, T/C (second compound 10 µM, first compound 0.03 µM): 30.9%
- viability, T/C (second compound 10 µM, first compound 0.0949 µM): 20.3%
- viability, T/C (second compound 10 µM, first compound 0.3 µM): 8.91%
